In ChEMBL document CHEMBL1201862, “PubChem BioAssay data set” (2004):
The source made the active and inactive calls.

Legend:
[1] = target: Intestinal-type alkaline phosphatase (Homo sapiens, UniProt P09923); assay: human intestinal alkaline phosphatase activators, dose response, biochemical, luminescence, uHTS hits (AID 463120); assay type: functional
[2] = target: T1, Delta-type opioid receptor (Homo sapiens, UniProt P41143); assay: DOR antagonists, SAR follow-up, image-based (AID 2357); assay type: functional
T1 sequence (P41143 whole entry): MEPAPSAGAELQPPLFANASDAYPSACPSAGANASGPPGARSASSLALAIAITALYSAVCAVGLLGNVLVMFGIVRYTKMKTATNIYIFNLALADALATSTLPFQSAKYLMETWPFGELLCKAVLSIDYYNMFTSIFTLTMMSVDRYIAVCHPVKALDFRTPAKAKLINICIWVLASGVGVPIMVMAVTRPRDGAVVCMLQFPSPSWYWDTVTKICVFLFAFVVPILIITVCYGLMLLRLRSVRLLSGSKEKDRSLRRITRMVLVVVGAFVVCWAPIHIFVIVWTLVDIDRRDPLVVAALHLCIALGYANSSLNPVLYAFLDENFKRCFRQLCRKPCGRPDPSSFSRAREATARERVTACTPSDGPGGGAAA

[3] = target: T2, Neuropeptides B/W receptor type 1 (Homo sapiens, UniProt P48145); assay: Fluorescence-based dose response cell-based high throughput screening assay to identify antagonists of the G-protein coupled receptor 7 (GPR7). [Related pubchem assays: 1952 (Screening assay (GPR7 antagonists).), 1880 (Summary AID.)]; assay type: functional
T2 sequence (P48145 whole entry): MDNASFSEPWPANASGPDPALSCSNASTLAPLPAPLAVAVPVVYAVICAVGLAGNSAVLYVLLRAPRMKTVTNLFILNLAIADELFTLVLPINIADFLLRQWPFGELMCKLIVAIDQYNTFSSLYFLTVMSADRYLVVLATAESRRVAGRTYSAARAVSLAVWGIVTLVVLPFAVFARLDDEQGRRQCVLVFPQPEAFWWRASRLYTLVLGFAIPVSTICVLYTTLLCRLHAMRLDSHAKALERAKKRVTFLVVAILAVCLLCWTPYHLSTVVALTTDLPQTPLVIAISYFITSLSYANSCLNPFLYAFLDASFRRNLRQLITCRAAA

[4] = target: T3, Kappa-type opioid receptor (Homo sapiens, UniProt P41145); assay: SAR analysis of small molecule agonists of the kappa opioid receptor via a luminescent beta-arrestin assay. [Related pubchem assays (depositor defined):AID1777, AID1786, AID1966, AID2133, AID2136, AID2348, AID2352, AID2357, AID2359, AID2370, AID2420, AID2478, AID2491, AID2492, AID2493, AID2497, AID2498, AID2500, AID449737, AID488822, AID488842]; assay type: functional
T3 sequence (P41145 whole entry): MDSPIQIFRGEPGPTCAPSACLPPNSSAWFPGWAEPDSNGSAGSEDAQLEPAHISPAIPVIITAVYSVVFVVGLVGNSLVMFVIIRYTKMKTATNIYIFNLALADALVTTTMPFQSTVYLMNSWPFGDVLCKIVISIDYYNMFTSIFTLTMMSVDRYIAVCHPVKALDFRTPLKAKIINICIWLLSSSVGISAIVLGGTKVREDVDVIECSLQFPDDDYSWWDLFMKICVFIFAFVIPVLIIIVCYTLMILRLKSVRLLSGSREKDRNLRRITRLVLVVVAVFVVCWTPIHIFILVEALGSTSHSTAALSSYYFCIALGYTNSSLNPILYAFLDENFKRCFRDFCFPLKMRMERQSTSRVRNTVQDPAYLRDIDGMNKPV

[5] = target: T1, Delta-type opioid receptor; assay: DOR agonists, SAR follow-up, image-based (AID 2370); assay type: functional
[6] = target: Melanin-concentrating hormone receptor 1 (Homo sapiens, UniProt Q99705); assay: Fluorescence-based counterscreen for antagonists of the G-protein coupled receptor 7 (GPR7): cell-based high throughput dose response assay to identify antagonists of the melanin-concentrating hormone receptor 1 (MCHR1).; assay type: functional
Chain of Melanin-concentrating hormone receptor 1 (Q99705 whole entry): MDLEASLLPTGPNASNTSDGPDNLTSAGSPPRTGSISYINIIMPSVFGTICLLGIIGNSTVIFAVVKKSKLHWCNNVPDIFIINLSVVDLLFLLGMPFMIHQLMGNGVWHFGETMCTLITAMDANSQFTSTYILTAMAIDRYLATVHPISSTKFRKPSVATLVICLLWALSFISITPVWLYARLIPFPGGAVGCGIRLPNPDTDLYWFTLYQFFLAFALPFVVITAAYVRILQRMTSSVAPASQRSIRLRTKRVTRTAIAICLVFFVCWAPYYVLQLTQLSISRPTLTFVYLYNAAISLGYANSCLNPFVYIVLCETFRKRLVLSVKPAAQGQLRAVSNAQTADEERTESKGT

[7] = target: T3, Kappa-type opioid receptor; assay: KOR antagonists by imaging, SAR follow-up, image-based (AID 2348); assay type: functional
[8] = target: T4, Mu-type opioid receptor (Homo sapiens, UniProt P35372); assay: MOR antagonists, SAR follow-up, image-based (AID 2420); assay type: functional;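 also: compounds added before stimulation of receptor with agonist DAMGO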
T4 sequence (P35372 whole entry): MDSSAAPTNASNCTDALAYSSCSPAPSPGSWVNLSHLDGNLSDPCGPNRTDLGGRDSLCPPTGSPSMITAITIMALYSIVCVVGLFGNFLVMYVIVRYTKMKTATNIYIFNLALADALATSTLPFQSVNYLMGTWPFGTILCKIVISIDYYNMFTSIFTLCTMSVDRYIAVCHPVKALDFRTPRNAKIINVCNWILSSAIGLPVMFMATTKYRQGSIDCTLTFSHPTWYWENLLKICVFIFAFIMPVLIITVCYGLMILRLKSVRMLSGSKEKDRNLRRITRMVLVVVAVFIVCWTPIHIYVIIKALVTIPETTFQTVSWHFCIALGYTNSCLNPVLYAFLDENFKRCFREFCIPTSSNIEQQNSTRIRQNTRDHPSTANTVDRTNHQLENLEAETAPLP

[9] = target: T4, Mu-type opioid receptor; assay: MOR agonists by imaging, SAR follow-up, image-based (AID 2352); assay type: functional
[10] = target: T3, Kappa-type opioid receptor; assay: KOR agonist analogs, imaging readout, SAR follow-up, image-based (AID 2359); assay type: functional
[11] = target: T5, Runt-related transcription factor 1/Core-binding factor subunit beta (Homo sapiens, UniProt Q01196+Q13951); assay: inhibitors of RUNX1 Runt–CBFb-SMMHC binding, primary screen, biochemical, FRET, Cerulean-Runt, Venus-CBFb-SMMHC, uHTS (AID 1434); assay type: protein assay;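 also: partner is the CBFb-SMMHC leukemia fusion protein rather than wild-type CBFb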
T5 sequence (Q01196 whole entry, the tested form may be a part): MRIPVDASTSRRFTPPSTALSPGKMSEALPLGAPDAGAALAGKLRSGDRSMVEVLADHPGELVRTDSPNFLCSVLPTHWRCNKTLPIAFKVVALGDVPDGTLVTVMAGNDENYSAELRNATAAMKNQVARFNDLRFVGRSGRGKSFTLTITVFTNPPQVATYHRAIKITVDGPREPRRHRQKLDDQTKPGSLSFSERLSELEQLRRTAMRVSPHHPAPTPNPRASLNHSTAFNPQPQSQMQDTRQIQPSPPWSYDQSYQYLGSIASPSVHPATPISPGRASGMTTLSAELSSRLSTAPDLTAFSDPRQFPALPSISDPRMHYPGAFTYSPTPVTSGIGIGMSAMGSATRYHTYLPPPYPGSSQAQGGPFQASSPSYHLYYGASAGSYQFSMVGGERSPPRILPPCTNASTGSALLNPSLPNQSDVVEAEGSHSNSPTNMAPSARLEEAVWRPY
T5 sequence (Q13951 whole entry, the tested form may be a part): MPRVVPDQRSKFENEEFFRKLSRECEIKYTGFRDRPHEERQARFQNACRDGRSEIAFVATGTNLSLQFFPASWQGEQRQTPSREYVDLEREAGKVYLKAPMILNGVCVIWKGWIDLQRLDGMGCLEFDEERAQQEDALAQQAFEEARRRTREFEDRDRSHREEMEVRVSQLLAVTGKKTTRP

[12] = target: T5, Runt-related transcription factor 1/Core-binding factor subunit beta; assay: inhibitors of RUNX1 Runt–CBFb-SMMHC binding, biochemical, TR-FRET (AID 1438); assay type: protein assay
[13] = target: T4, Mu-type opioid receptor; assay: HTS Image-Based Screen for Agonists of the MOR Receptor. [Related pubchem assays (depositor defined):AID1777, AID1785, AID1786, AID2133]; assay type: functional
[14] = target: T1, Delta-type opioid receptor; assay: HTS Image-Based Screen for Antagonists of the DOR Receptor. [Related pubchem assays (depositor defined):AID1777, AID1785, AID1786, AID2133]; assay type: functional
[15] = target: T3, Kappa-type opioid receptor; assay type: functional
[16] = target: T1, Delta-type opioid receptor; assay: HTS Image-Based Screen for Agonists of the DOR Receptor. [Related pubchem assays (depositor defined):AID1777, AID1786, AID2133]; assay type: functional
[17] = target: T3, Kappa-type opioid receptor; assay type: functional; remark: listed apart in the source

Chain of Intestinal-type alkaline phosphatase (P09923 whole entry): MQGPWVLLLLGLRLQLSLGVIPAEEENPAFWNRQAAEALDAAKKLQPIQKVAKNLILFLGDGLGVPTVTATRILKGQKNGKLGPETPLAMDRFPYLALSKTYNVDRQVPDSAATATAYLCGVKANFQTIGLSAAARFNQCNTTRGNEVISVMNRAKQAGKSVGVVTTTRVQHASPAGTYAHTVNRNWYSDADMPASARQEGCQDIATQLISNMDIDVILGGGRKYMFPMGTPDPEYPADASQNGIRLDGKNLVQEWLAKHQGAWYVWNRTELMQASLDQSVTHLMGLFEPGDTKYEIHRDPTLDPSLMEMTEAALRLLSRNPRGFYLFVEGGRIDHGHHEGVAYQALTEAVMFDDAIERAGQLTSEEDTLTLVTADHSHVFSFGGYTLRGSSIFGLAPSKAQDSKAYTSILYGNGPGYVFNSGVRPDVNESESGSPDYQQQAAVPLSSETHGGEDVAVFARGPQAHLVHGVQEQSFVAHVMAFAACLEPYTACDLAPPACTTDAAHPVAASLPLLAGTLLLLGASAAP

Cc1cc(C)c2nc(SCC(=O)NNC(=O)c3ccco3)c(C)cc2c1
EC50 [1]: 12.7 µM (active)

O=C(c1cnccn1)N(Cc1ccco1)C1(C(=O)NC2CCCC2)CCCCC1
IC50 [2]: > 32 µM (inactive)
IC50 [3]: > 43.8 µM (not active)
EC50 [4]: > 10 µM (inactive)
EC50 [5]: > 32 µM (inactive)
IC50 [6]: > 43.8 µM (not active)
IC50 [7]: > 32 µM (inactive)
IC50 [8]: > 32 µM (inactive)
EC50 [9]: > 32 µM (inactive)
EC50 [10]: > 32 µM (inactive)

CC(C)C(=O)N(c1cc2sc(=O)oc2c2ccccc12)S(=O)(=O)c1cccs1
IC50 [11]: > 100 µM (inactive)
IC50 [12]: > 100 µM (inactive)

O=C(c1ccc([N+](=O)[O-])cc1)N(Cc1ccc(Br)cc1)N1C(=O)CCCC1=O
EC50 [13]: > 32 µM (inactive)
IC50 [14]: > 32 µM (inactive)
EC50 [15]: 3.55 µM
EC50 [16]: > 32 µM (inactive)
EC50 [17]: > 35 µM
